These results are taken from patent US20250179502A1, “TARGETING NEUROPILIN 2 (NRP2) IN LETHAL PROSTATE CANCER” (UNIVERSITY OF MASSACHUSETTS, priority 2022, published 2025).

Numbered stars: 1 amine (or outer) side, 2 acyl side, 3 side chain; on linkers, the order of the positions; unused ones are H or OH. Bridge positions count the residues as written; N and C are the ends. Square brackets hold non-standard residues; d marks the D form. Peptide text beside a SMILES is read from it. I, II: the chains in the order shown. Actinocin(9to1) = Cc1c2oc3c(C)ccc(C(=O)[*:1])c3nc-2c(C(=O)[*:2])c(N)c1=O; NMeV = CN[C@H](C(=O)O)C(C)C; Sar = CNCC(=O)O

One assay deals with T1, Nrp2-b1b2 (Homo sapiens, UniProt O60462).
T1 sequence (O60462 276-595 limits assumed): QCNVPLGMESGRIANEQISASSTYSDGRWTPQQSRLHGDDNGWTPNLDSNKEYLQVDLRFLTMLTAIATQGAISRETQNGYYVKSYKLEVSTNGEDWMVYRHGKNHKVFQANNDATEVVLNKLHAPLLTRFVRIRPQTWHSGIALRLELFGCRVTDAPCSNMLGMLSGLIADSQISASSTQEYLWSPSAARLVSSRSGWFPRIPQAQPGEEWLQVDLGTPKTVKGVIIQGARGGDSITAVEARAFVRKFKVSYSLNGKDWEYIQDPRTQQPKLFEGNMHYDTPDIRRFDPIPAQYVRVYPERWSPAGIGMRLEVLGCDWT
The settings on record: cited from earlier work.

The next assay concerns PD-L1 mRNA in PC3. In words: PD-L1 mRNA by qPCR in PC3 cells treated with YAP inhibitor. It counts as cell-based, human. The settings on record: Verteporfin 2 μM for 24 hours versus DMSO. How it is done: (D) Bar graphs show fold change of PD-L1/18S mRNA in PC3 treated with DMSO versus PC3 treated with YAP inhibitor (Verteporfin) from 3 independent experiments determined by qPCR.
The following reagents were used: CellTrace™ Violet Cell Proliferation Kit (Thermo Fisher, C34571), eBioscience™ Fixable Viability Dye eFluor™ 780 (Invitrogen, 65-0865-14). Verteporfin was purchased from Tocris and used at a concentration of 2 μM for 24 hours.
Real-time qPCR. RNA extraction was accomplished using an RNA isolation kit (BS88133, Bio Basic Inc.), and cDNAs were produced using a qScript cDNA syn-thesis kit (#95047, Quantabio). SYBR Green (Applied Biosystems) was used as the qPCR master mix. Experiments were performed in triplicate and normalized to 18S. qPCR primer sequences were obtained from the Massachusetts General Hospital/Harvard Medical School PrimerBank (pga.mgh. harvard.edu/primerbank/).

For `Cc1c2oc3c(C)ccc(C(=O)N[C@@H]4C(=O)N[C@H](C(C)C)C(=O)N5CCC[C@H]5C(=O)N(C)CC(=O)N(C)[C@@H](C(C)C)C(=O)O[C@@H]4C)c3nc-2c(C(=O)N[C@@H]2C(=O)N[C@H](C(C)C)C(=O)N3CCC[C@H]3C(=O)N(C)CC(=O)N(C)[C@@H](C(C)C)C(=O)O[C@@H]2C)c(N)c1=O` [Actinomycin D] (I: T[dV]P[Sar][NMeV] / II: T[dV]P[Sar][NMeV]; ester I:1-I:C, II:1-II:C; linker I:N-II:N via Actinocin(9to1)), at Nrp2-b1b2, the AP-VEGF-C/Nrp2-b1b2 binding entry is reported as “inhibit”.
For Verteporfin, the “PD-L1 mRNA level (PD-L1/18S)” value with PD-L1 mRNA in PC3 is recorded as “significantly reduced”.
As to `COc1cc(C(=O)NS(=O)(=O)c2ccccc2C)ccc1Cc1cn(C)c2ccc(NC(=O)OC3CCCC3)cc12` [Zafirlukast], the AP-VEGF-C/Nrp2-b1b2 binding entry on Nrp2-b1b2 is reported as “inhibit”.
In the case of `Oc1cc2c(cc1O)[C@H]1c3ccccc3CN[C@@H]1CC2` (racemic) [Dihydrexidine], the AP-VEGF-C/Nrp2-b1b2 binding result on Nrp2-b1b2 is recorded as “inhibit”.
